Experimental data as given in US20240108732A1, “Formulated and/or Co-Formulated Lipid Nanocarriers Compositions Containing Toll-Like Receptor ("TLR") Agonist Prodrugs Useful In The Treatment of Cancer and Methods Thereof” (Nammi Therapeutics, Inc., priority 2022, published 2024).

Key:
[1] = target: T1, human TLR8 (Homo sapiens, UniProt Q9NR97); assay: Example 15: HEK-Blue hTLR8 cells / QUANTI-Blue SEAP assay; type: cell-based; details: from RAW-Blue and HEK-Blue hTLR8 results
T1 construct: host or cells: HEK-Blue hTLR8 cells
T1 sequence (Q9NR97 27-1041): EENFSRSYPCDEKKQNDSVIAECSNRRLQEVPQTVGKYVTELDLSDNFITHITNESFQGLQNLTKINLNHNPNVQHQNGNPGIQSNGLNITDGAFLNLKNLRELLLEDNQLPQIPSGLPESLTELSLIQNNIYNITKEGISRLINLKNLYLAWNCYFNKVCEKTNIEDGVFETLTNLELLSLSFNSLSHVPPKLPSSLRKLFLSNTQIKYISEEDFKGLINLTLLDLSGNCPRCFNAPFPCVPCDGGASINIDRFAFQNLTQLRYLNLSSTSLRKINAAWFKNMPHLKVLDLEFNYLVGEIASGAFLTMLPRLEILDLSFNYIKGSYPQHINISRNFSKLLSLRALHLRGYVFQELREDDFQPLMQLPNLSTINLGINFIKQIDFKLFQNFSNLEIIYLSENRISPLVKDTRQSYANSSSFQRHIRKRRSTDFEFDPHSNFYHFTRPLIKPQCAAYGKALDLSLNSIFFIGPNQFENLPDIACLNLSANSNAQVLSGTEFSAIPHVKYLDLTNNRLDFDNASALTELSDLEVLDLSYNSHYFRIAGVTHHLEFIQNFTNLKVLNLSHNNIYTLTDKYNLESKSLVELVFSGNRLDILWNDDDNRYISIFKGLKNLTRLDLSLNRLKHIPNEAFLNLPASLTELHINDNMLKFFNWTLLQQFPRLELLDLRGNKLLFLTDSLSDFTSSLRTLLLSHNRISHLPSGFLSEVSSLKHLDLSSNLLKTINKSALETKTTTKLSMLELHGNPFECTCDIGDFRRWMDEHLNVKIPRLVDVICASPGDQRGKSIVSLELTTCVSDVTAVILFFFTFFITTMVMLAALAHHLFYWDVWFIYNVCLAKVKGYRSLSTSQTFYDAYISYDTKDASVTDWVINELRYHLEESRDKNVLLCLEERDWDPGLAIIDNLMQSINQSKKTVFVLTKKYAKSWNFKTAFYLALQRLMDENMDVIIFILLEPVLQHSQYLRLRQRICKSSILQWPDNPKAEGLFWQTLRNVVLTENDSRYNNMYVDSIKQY
Text: In another experiment, in vitro biological activity of SLNP-TR12 specificity to TLR7 was confirmed using the following experiment. […] It is noted that despite Raw-Blue cells that express a variety of TLRs including TLR7 and TLR8, the HEK-Blue™ hTLR8 cells dominantly express the human TLR8 gene and an NF-κB/AP-1-inducible SEAP (secreted embryonic alkaline phosphatase) reporter gene. Thus, SEAP levels produced upon TLR8 stimulation can be readily determined by performing the assay in HEK-Blue™ Detection.
Concurrently, HEK-Blue TLR8 were incubated with SLNP-TR5 or SLNP-TR12 at different concentrations. After 24 h incubation with the compounds, TLR stimulation was assessed by measuring the levels of SEAP optimal density (OD) using QUANTI-Blue™ assay. ODs were normalized to the control (untreated) group (See, FIG. 23(B)).

[2] = target: T2, TLR7 (Mus musculus, UniProt P58681); assay: Example 13: RAW-Blue cells / QUANTI-Blue SEAP reporter assay; type: cell-based; details: 24 h incubation
T2 construct: Raw-Blue cells that express a variety of TLRs including TLR7 and TLR8; host or cells: RAW-Blue cells
T2 sequence (P58681 27-1050): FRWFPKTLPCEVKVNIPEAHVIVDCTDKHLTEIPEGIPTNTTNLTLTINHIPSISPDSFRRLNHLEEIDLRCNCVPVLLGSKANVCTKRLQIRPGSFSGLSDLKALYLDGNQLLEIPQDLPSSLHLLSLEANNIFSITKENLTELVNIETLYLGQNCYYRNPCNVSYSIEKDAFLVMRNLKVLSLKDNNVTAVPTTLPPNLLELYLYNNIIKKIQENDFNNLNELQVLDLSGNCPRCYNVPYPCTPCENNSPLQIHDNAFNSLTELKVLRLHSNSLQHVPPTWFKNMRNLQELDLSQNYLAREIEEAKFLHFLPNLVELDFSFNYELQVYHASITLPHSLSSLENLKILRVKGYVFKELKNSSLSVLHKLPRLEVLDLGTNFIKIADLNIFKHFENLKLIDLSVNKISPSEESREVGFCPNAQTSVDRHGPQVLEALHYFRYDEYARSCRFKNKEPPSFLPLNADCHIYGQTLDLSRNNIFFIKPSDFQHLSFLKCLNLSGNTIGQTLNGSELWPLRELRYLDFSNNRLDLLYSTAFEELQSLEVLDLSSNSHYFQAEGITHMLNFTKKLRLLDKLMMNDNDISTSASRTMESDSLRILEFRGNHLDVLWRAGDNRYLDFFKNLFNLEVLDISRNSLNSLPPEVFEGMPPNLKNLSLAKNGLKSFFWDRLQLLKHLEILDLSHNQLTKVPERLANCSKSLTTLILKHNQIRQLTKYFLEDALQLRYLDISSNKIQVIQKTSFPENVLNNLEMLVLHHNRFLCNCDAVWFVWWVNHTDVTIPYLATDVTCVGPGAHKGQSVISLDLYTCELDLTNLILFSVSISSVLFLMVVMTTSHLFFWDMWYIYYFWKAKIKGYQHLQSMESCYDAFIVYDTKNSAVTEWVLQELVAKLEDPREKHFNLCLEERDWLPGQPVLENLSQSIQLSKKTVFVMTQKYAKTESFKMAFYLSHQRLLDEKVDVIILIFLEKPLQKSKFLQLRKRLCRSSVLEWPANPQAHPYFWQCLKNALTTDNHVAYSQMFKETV
Method: By way of background, RAW-Blue™ Cells and QUANTI-Blue™ (InvivoGen, San Diego, CA) assay were utilized. Raw Blue™ express […] Toll-like receptors (“TLRs”) and an NF-κB/AP-1-inducible SEAP (secreted embryonic alkaline phosphatase) reporter gene. Stimulation of these cells with TR12 leads to NF-κB activation through TLR7 which can be measured by detection of SEAP levels. Briefly, RAW-Blue™ Cells were incubated with TR12-SA (TR12-Stearic Acid) and SLNP-TR12 (TR12 Stearic Acid in Solid Lipid Nanoparticle from) at different concentration. After 24 h incubation with the compounds, TLR stimulation was assessed by measuring the levels of SEAP optimal density (OD) using QUANTI-Blue™ assay. ODs were normalized to the control (untreated) group. […] (See, FIG. 21).

specificity TLR7 versus TLR8 [1] | TLR stimulation (SEAP OD normalized to untreated control) [2] | Structure (SMILES)
stimulates both TLR7 and TLR8 | – | CCCCCCCCCCCCCCCCCC(=O)NCCCCOn1c(CCCC)nc2c(N)nc3ccccc3c21 [TR5, Telratolimod]
– | stimulation of TLR-7 | CCCCCCCCCCCCCCCCCC(=O)OCOC(=O)N1CCN(c2ccc(Cn3c(=O)[nH]c4c(N)nc(NCCCC)nc43)cn2)CC1 [TR12 prodrug]
